Assay results reported in US20230330093A1, “APPLICATION OF NITROGEN-CONTAINING SATURATED HETEROCYCLIC COMPOUND” (SHANGHAI PHARMACEUTICALS HOLDING CO., LTD., priority 2020, published 2023).
Where “and” joins values, the source holds several entries; their conditions need not be identical. Equal values may be shown once.

Experiments:
Assay type in all cases: in vivo, Macaca mulatta (Rhesus Macaque)
[1] = tested on: rhesus monkeys with spontaneous chronic kidney disease (CKD); assay: Effect on UACR (proteinuria), 8-week oral administration; conditions: for MALB / UACR: per animal + Mean ± SD; for UACR change rate: 8 weeks vs baseline, negative = decrease; for UACR Benefit assessment: per animal
Protocol: CKD-EPI rating […]-G3b, glomerular filtration rate eGFR: 30 59 ml/min/1.73 m^2; or moderate to severe increase in proteinuria (A2-A3): urine albumin/creatinine ratio (UACR)>15 mg/g-350 mg/g (4-6 hour urine collection), vs. age-matched control group 3±2 mg/g. In the trial, animals were brought in three stages. […] ELISA kit was used for NT-proBNP test. [table]

[2] = tested on: rhesus monkeys with spontaneous chronic kidney disease; assay: Effect on BUN, 8-week administration
Protocol: In the trial, animals were brought in three stages. […] Glomerular filtration rate […]: creatinine (Cr-P), urea nitrogen (BUN) and cystatin (CysC) were detected, and the eGFR value was obtained by calculation. It was performed once before the administration and once every two weeks after the administration. […] ELISA kit was used for NT-proBNP test. [table]

[3] = tested on: rhesus monkeys with spontaneous chronic kidney disease; assay: Effect on NT-proBNP (ELISA), 8-week administration
Excerpt: In the trial, animals were brought in three stages. […] ELISA kit was used for NT-proBNP test. [table]

[4] = tested on: rhesus monkeys with spontaneous chronic kidney disease; assay: Effect on glomerular filtration rate eGFRcreat-cys, 8-week administration; conditions: 1 mg/kg oral once a day
Protocol: CKD-EPI rating […]-G3b, glomerular filtration rate eGFR: 30 59 ml/min/1.73 m^2; or moderate to severe increase in proteinuria (A2-A3): urine albumin/creatinine ratio (UACR)>15 mg/g-350 mg/g (4-6 hour urine collection), vs. age-matched control group 3±2 mg/g. In the trial, animals were brought in three stages. […] Glomerular filtration rate […]: creatinine (Cr-P), urea nitrogen (BUN) and cystatin (CysC) were detected, and the eGFR value was obtained by calculation. It was performed once before the administration and once every two weeks after the administration. […] ELISA kit was used for NT-proBNP test. [table] Selected […] in each group: 30 59 ml/min/1.73 m^2. The changes in the glomerular filtration rate of W8 and baseline were analyzed.

[5] = 1 mg/kg oral once a day, 4 weeks
[6] = 1 mg/kg oral once a day, 4 weeks, mean
[7] = 1 mg/kg oral once a day, 8 weeks
[8] = 1 mg/kg oral once a day, 8 weeks, mean
[9] = 1 mg/kg oral once a day, Baseline
[10] = 1 mg/kg oral once a day, Baseline, mean
[11] = 2 mg/kg oral once a day, 4 weeks
[12] = 2 mg/kg oral once a day, 4 weeks, mean
[13] = 2 mg/kg oral once a day, 8 weeks
[14] = 2 mg/kg oral once a day, 8 weeks, mean
[15] = 2 mg/kg oral once a day, Baseline
[16] = 2 mg/kg oral once a day, Baseline, mean
[17] = 5 mg/kg oral once a day, 8 weeks
[18] = 5 mg/kg oral once a day, 8 weeks, mean
[19] = 5 mg/kg oral once a day, Baseline
[20] = 5 mg/kg oral once a day, Baseline, mean

`COC(=O)NCCCn1nc([C@@H](C)N(C(=O)[C@H]2CNCCO2)C2CC2)c2ccc(C)nc21.O=C(O)C[C@H](O)C(=O)O` [malate of compound of Formula I] was tested, and the MALB [1, 5] was 4.6 mg/L and 34.1 mg/L and 1.4 mg/L and 5.1 mg/L and 1.3 mg/L, the UACR [1, 5] was 15.0 mg/g and 28.1 mg/g and 7.2 mg/g and 4.7 mg/g and 8.1 mg/g and the MALB [1, 6] was 9.3 ± 14.0 mg/L. The UACR [1, 6] was 12.6 mg/g, the “UACR change rate” value ([1]; 1 mg/kg oral once a day, per animal + Mean ± SD (2/5 animals in statistics)) was −39.14% and 8.44% and the “UACR change rate” value ([1]; 1 mg/kg oral once a day, per animal + Mean ± SD (2/5 animals in statistics), mean) was −15.35%. The “UACR Benefit assessment” value [1, 7] was “Benefit and No”, the MALB [1, 7] was 5.2 mg/L and 38.4 mg/L and 0.8 mg/L and 7.6 mg/L and 1.1 mg/L and the UACR [1, 7] was 20.0 mg/g and 32.5 mg/g and 3.1 mg/g and 2.6 mg/g and 6.1 mg/g. For the same compound, the MALB [1, 8] was 10.6 ± 15.8 mg/L, the UACR [1, 8] was 12.9 ± 13.0 mg/g and the “UACR Benefit assessment” value ([1]; 1 mg/kg oral once a day, 8 weeks, listed as malate of compound of formula I) was “The benefit was not obvious in one case”. The MALB [1, 9] was 9.5 mg/L and 26.8 mg/L and 0.6 mg/L and 0.9 mg/L (2×), the UACR [1, 9] was 32.8 mg/g and 30.0 mg/g and 2.9 mg/g and 1.6 mg/g and 4.1 mg/g and the MALB [1, 10] was 7.7 ± 11.3 mg/L. For the same compound, the UACR [1, 10] was 14.3 mg/g, the “UACR of W8 decreased by, compared with the baseline” value ([1]; 1 mg/kg qd, one animal) was 39% and the MALB [1, 11] was 1.0 mg/L and 12.5 mg/L and 5.3 mg/L and 103.7 mg/L and 2.4 mg/L. The UACR [1, 11] was 3.1 mg/g and 7.9 mg/g and 12.7 mg/g and 92.9 mg/g and 3.6 mg/g, the MALB [1, 12] was 25.0 ± 44.2 mg/L and the UACR [1, 12] was 24.0 mg/g. For the same compound, the “UACR change rate” value ([1]; 2 mg/kg oral once a day, per animal + Mean ± SD (3/5 animals in statistics, p < 0.01 vs placebo)) was −85.13% and −51.06% and −61.81%, the “UACR change rate” value ([1]; 2 mg/kg oral once a day, per animal + Mean ± SD (3/5 animals in statistics, p < 0.01 vs placebo), mean) was −66.00% and the “UACR Benefit assessment” value [1, 13] was “Benefit”. The MALB [1, 13] was 3.0 mg/L and 0.4 mg/L and 0.6 mg/L and 69.5 mg/L and 3.6 mg/L, the UACR [1, 13] was 5.6 mg/g and 1.2 mg/g and 2.3 mg/g and 59.8 mg/g and 11.2 mg/g and the MALB [1, 14] was 15.4 ± 30.3 mg/L. For the same compound, the UACR [1, 14] was 16.0 ± 24.8 mg/g, the “UACR Benefit assessment” value ([1]; 2 mg/kg oral once a day, 8 weeks, listed as malate of compound of formula I) was “all showed benefits” and the MALB [1, 15] was 1.2 mg/L and 0.6 mg/L and 5.3 mg/L and 145.4 mg/L and 6.8 mg/L. The UACR [1, 15] was 3.5 mg/g and 2.5 mg/g and 15.3 mg/g and 122.1 mg/g and 29.3 mg/g, the MALB [1, 16] was 31.9 ± 63.5 mg/L and the UACR [1, 16] was 34.5 mg/g. The “W8 UACR decreased by on average, compared with the baseline” value ([1]; 2 mg/kg qd, 3/5 animals with moderate to severe proteinuria, p<0.01 vs placebo) was 66.00±17.42%, the “UACR of W8 decreased by, compared with the baseline” value ([1]; 2 mg/kg qd, three animals) was 50%-80% and the UACR change rate ([1]; 5 mg/kg oral once a day, per animal + Mean ± SD (4/6 animals in statistics, p < 0.05 vs placebo)) was 16.75% and −64.10% and −68.62% and −72.14%. For the same compound, the UACR change rate ([1]; 5 mg/kg oral once a day, per animal + Mean ± SD (4/6 animals in statistics, p < 0.05 vs placebo), mean) was −46.87 ± 36.93 %, the “UACR Benefit assessment” value [1, 17] was “all showed benefits and One animal showed no benefit and No and Benefit” and the MALB [1, 17] was 72.4 mg/L and 1.2 mg/L and 3.4 mg/L and 112.3 mg/L and 0.3 mg/L and 21.6 mg/L. The UACR [1, 17] was 138.4 mg/g and 5.7 mg/g and 9.1 mg/g and 87.7 mg/g and 1.8 mg/g and 35.1 mg/g, the MALB [1, 18] was 35.2 ± 46.7 mg/L and the UACR [1, 18] was 46.3 ± 55.4 mg/g. For the same compound, the MALB [1, 19] was 93.2 mg/L and 4.3 mg/L and 46.5 mg/L and 59.3 mg/L and 2.1 mg/L and 26.0 mg/L, the UACR [1, 19] was 118.5 mg/g and 10.5 mg/g and 25.4 mg/g and 279.3 mg/g and 2.4 mg/g and 125.8 mg/g and the MALB [1, 20] was 38.6 ± 35.0 mg/L. For the same compound, the UACR [1, 20] was 93.7 ± 105.9 mg/g, the “UACR of W8 decreased by, compared with the baseline” value ([1]; 5 mg/kg qd, 3 animals) was 60%-70% and the “W8 UACR decreased by on average, compared with the baseline” value ([1]; 5 mg/kg qd, 4/6 animals with moderate-to-severe proteinuria, p<0.05 vs placebo) was 46.87±36.93%. The “effect on UACR and eGFRcreat-cys compared with Valsartan” value ([1]; 2-5 mg/kg qd for 8 weeks) was “equivalent to the Valsartan group”, the “proteinuria (UACR) improvement” value ([1]; 2-5 mg/kg qd for 8 weeks) was “can be significantly improved” and the BUN ([2]; 1 mg/kg (n = 5), Baseline2, single animals and Mean ± SD) was 35.1 mg/dL and 32.4 mg/dL and 19.3 mg/dL and 39.8 mg/dL and 40.8 mg/dL. For the same compound, the BUN ([2]; 1 mg/kg (n = 5), Baseline2, single animals and Mean ± SD, mean) was 33.5 ± 8.6 mg/dL, the BUN ([2]; 2 mg/kg (n = 5), 4 weeks) was 42.7 mg/dL and 37.1 mg/dL and 22.9 mg/dL and 41.6 mg/dL and 30.4 mg/dL and the BUN ([2]; 2 mg/kg (n = 5), 4 weeks, mean) was 34.9 ± 8.3 mg/dL. The BUN ([2]; 2 mg/kg (n = 5), Baseline2, single animals and Mean ± SD) was 37.5 mg/dL and 24.2 mg/dL and 18.7 mg/dL and 42.1 mg/dL and 25.4 mg/dL, the BUN ([2]; 2 mg/kg (n = 5), Baseline2, single animals and Mean ± SD, mean) was 29.6 ± 9.8 mg/dL and the BUN ([2]; 5 mg/kg (n = 6), Baseline2, single animals and Mean ± SD) was 18.6 mg/dL and 37.3 mg/dL and 41.3 mg/dL and 77.3 mg/dL and 18.1 mg/dL and 81.2 mg/dL. For the same compound, the BUN ([2]; 5 mg/kg (n = 6), Baseline2, single animals and Mean ± SD, mean) was 45.6 ± 27.7 mg/dL, the NT-proBNP ([3]; 1 mg/kg (n = 5), Baseline, single animals and Mean ± SD) was 88 pg/mL and 299 pg/mL and 127 pg/mL and 203 pg/mL and 44 pg/mL and the NT-proBNP ([3]; 1 mg/kg (n = 5), Baseline, single animals and Mean ± SD, mean) was 152 ± 101 pg/mL. The NT-proBNP ([3]; 2 mg/kg (n = 5), Baseline, single animals and Mean ± SD) was 43 pg/mL and 155 pg/mL and 335 pg/mL and 46 pg/mL and 250 pg/mL, the NT-proBNP ([3]; 2 mg/kg (n = 5), Baseline, single animals and Mean ± SD, mean) was 166 ± 127 pg/mL and the NT-proBNP ([3]; 5 mg/kg (n = 6), 8 weeks) was 261 pg/mL and 146 pg/mL and 250 pg/mL and 197 pg/mL and 180 pg/mL. For the same compound, the NT-proBNP ([3]; 5 mg/kg (n = 6), 8 weeks, mean) was 231 ± 73 pg/mL, the NT-proBNP ([3]; 5 mg/kg (n = 6), Baseline, single animals and Mean ± SD) was 312 pg/mL and 88 pg/mL and 211 pg/mL and 432 pg/mL and 177 pg/mL and 162 pg/mL and the NT-proBNP ([3]; 5 mg/kg (n = 6), Baseline, single animals and Mean ± SD, mean) was 230 ± 123 pg/mL. The “eGFRcreat-cy, Change value” ([4]; 2 weeks vs baseline, per animal + Mean ± SD) was 1 ml/min/1.73 m^2 and 2 ml/min/1.73 m^2 and −3 ml/min/1.73 m^2 and −2 ml/min/1.73 m^2 and 4 ml/min/1.73 m^2, the “eGFRcreat-cy, Change value” ([4]; 2 weeks vs baseline, per animal + Mean ± SD, mean) was 0 ± 3 ml/min/1.73 m^2 and the “eGFRcreat-cy, Change value” ([4]; 4 weeks vs baseline, per animal + Mean ± SD) was 8 ml/min/1.73 m^2 and 10 ml/min/1.73 m^2 and 3 ml/min/1.73 m^2 and 1 ml/min/1.73 m^2 and 5 ml/min/1.73 m^2. For the same compound, the “eGFRcreat-cy, Change value” ([4]; 4 weeks vs baseline, per animal + Mean ± SD, mean) was 5 ± 4 ml/min/1.73 m^2, the “eGFRcreat-cy, Change value” ([4]; 6 weeks vs baseline, per animal + Mean ± SD) was 7 ml/min/1.73 m^2 and 3 ml/min/1.73 m^2 (3×) and 6 ml/min/1.73 m^2 and the “eGFRcreat-cy, Change value” ([4]; 6 weeks vs baseline, per animal + Mean ± SD, mean) was 4 ± 2 ml/min/1.73 m^2. The “eGFRcreat-cy, Change value” ([4]; 8 weeks vs baseline, per animal + Mean ± SD (no statistical change vs placebo)) was 3±4 ml/min/1.73 m^2 and 7 ml/min/1.73 m^2 and 6 ml/min/1.73 m^2 and 0 ml/min/1.73 m^2 and 2 ml/min/1.73 m^2 and 5 ml/min/1.73 m^2, the “eGFRcreat-cy, Change value” ([4]; Baseline, per animal + Mean ± SD) was 0 ml/min/1.73 m^2 and the “eGFRcreat-cy, Change value” ([4]; Baseline, per animal + Mean ± SD, mean) was 0 ± 0 ml/min/1.73 m^2.
